#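 Results reflect a 48-hour exposure of cells in 96-well plates to compound at five concentrations. At the GI50, growth is halved.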 The source made the active and inactive calls. Cut-off read from the data, not from the text of the source: active = GI50 up to about 1.1 µM and inactive = higher.
# What was measured:
# Test in all cases: inhibition of tumour cell growth, NCI panel, 48 h
# SK-MEL-2 = system: SK-MEL-2
# KM12 = system: KM12
# HCT-15 = system: HCT-15
# A549 = system: A549
# SK-MEL-28 = system: SK-MEL-28
# SK-OV-3 = system: SK-OV-3
# COLO 205 = system: COLO 205
# A498 = system: A498
# SF-539 = system: SF-539
# Malme-3M = system: Malme-3M
# OVCAR-3 = system: OVCAR-3
# OVCAR-4 = system: OVCAR-4
# UACC-62 = system: UACC-62
# EKVX = system: EKVX
# NCI-H23 = system: NCI-H23
# XF498 = system: XF498
# CCRF-CEM = system: CCRF-CEM
# SF-295 = system: SF-295
# DMS-114 = system: DMS-114
# TK-10 = system: TK-10
# LXFL 529 = system: LXFL 529
# UO-31 = system: UO-31
# 786-0 = system: 786-0
# ACHN = system: ACHN
# NCI-H522 = system: NCI-H522
# SNB-75 = system: SNB-75
# OVCAR-8 = system: OVCAR-8
# SK-MEL-5 = system: SK-MEL-5
# M14 = system: M14
# SNB-78 = system: SNB-78
# LOX IMVI = system: LOX IMVI
# HOP-92 = system: HOP-92
# HL-60 = system: HL-60
# IGROV-1 = system: IGROV-1
# OVCAR-5 = system: OVCAR-5
# RXF 393 = system: RXF 393
# M19-MEL = system: M19-MEL
# K562 = system: K562
# CAKI-1 = system: CAKI-1
# SF-268 = system: SF-268
# NCI-H226 = system: NCI-H226
# MOLT-4 = system: MOLT-4
# KM-20L2 = system: KM-20L2
# DLD-1 = system: DLD-1
# SW-620 = system: SW-620
# UACC-257 = system: UACC-257
# HT-29 = system: HT-29
# U-251 = system: U-251
# RPMI-8226 = system: RPMI-8226
# HOP-62 = system: HOP-62
# HCC 2998 = system: HCC 2998
# SN12C = system: SN12C
# NCI-H460 = system: NCI-H460
# SNB-19 = system: SNB-19
# SR = system: SR
# DMS-273 = system: DMS-273
smiles,measurement,setting,value
O=C1OC(CCCl)(c2ccccc2)CC1CN1CCOCC1 (configuration not stated),GI50,SK-MEL-2,24.3 µM (inactive)
same,GI50,KM12,20.2 µM (inactive)
same,GI50,HCT-15,20.9 µM
same,GI50,A549,80.5 µM (inactive)
same,GI50,SK-MEL-28,19.7 µM (inactive)
same,GI50,SK-OV-3,> 100 µM (inactive)
same,GI50,COLO 205,18.9 µM (inactive)
same,GI50,A498,> 100 µM (inactive)
same,GI50,SF-539,27.2 µM (inactive)
same,GI50,Malme-3M,18.4 µM (inactive)
same,GI50,OVCAR-3,17.8 µM (inactive)
same,GI50,OVCAR-4,48.4 µM (inactive)
same,GI50,UACC-62,21 µM (inactive)
same,GI50,EKVX,19.9 µM (inactive)
same,GI50,NCI-H23,8.95 µM (inactive)
same,GI50,XF498,14.6 µM (inactive)
same,GI50,CCRF-CEM,11.4 µM (inactive)
same,GI50,SF-295,43 µM (inactive)
same,GI50,DMS-114,20.4 µM (inactive)
same,GI50,TK-10,16.4 µM (inactive)
same,GI50,LXFL 529,18.8 µM (inactive)
same,GI50,UO-31,68.9 µM (inactive)
same,GI50,786-0,12.1 µM (inactive)
same,GI50,ACHN,32.2 µM (inactive)
same,GI50,NCI-H522,18.7 µM (inactive)
same,GI50,SNB-75,15.4 µM (inactive)
same,GI50,OVCAR-8,17.7 µM (inactive)
same,GI50,SK-MEL-5,19.7 µM (inactive)
same,GI50,M14,20.4 µM (inactive)
same,GI50,SNB-78,26.2 µM (inactive)
same,GI50,LOX IMVI,27.3 µM (inactive)
same,GI50,HOP-92,16.6 µM (inactive)
same,GI50,HL-60,9.77 µM (inactive)
same,GI50,IGROV-1,23.6 µM (inactive)
same,GI50,OVCAR-5,> 100 µM (inactive)
same,GI50,RXF 393,17.2 µM (inactive)
same,GI50,M19-MEL,22.1 µM (inactive)
same,GI50,K562,14.8 µM (inactive)
same,GI50,CAKI-1,8.49 µM (inactive)
same,GI50,SF-268,41.4 µM (inactive)
same,GI50,NCI-H226,13.8 µM (inactive)
same,GI50,MOLT-4,18 µM (inactive)
same,GI50,KM-20L2,39.5 µM (inactive)
same,GI50,DLD-1,17.7 µM (inactive)
same,GI50,SW-620,17 µM (inactive)
same,GI50,UACC-257,22.5 µM (inactive)
same,GI50,HT-29,18.4 µM (inactive)
same,GI50,U-251,> 100 µM (inactive)
same,GI50,RPMI-8226,3.84 µM (inactive)
same,GI50,HOP-62,50.5 µM (inactive)
same,GI50,HCC 2998,26.3 µM (inactive)
same,GI50,SN12C,29.2 µM (inactive)
same,GI50,NCI-H460,67.3 µM (inactive)
O=c1cc2n(c(=O)[nH]1)C1OC(C(O)C1O)[C@H]2CCO (some centres not stated),GI50,SK-MEL-2,> 100 µM (inactive)
same,GI50,KM12,> 100 µM (inactive)
same,GI50,A549,> 100 µM (inactive)
same,GI50,SK-MEL-28,> 100 µM (inactive)
same,GI50,SK-OV-3,> 100 µM (inactive)
same,GI50,COLO 205,> 100 µM (inactive)
same,GI50,A498,> 100 µM (inactive)
same,GI50,SF-539,> 100 µM (inactive)
same,GI50,Malme-3M,> 100 µM (inactive)
same,GI50,SNB-19,> 100 µM (inactive)
same,GI50,OVCAR-4,> 100 µM (inactive)
same,GI50,UACC-62,> 100 µM (inactive)
same,GI50,EKVX,> 100 µM (inactive)
same,GI50,NCI-H23,> 100 µM (inactive)
same,GI50,CCRF-CEM,> 100 µM (inactive)
same,GI50,SF-295,> 100 µM (inactive)
same,GI50,DMS-114,> 100 µM (inactive)
same,GI50,TK-10,> 100 µM (inactive)
same,GI50,LXFL 529,> 100 µM (inactive)
same,GI50,SR,> 100 µM (inactive)
same,GI50,UO-31,> 100 µM (inactive)
same,GI50,786-0,> 100 µM (inactive)
same,GI50,ACHN,> 100 µM (inactive)
same,GI50,NCI-H522,> 100 µM (inactive)
same,GI50,OVCAR-8,> 100 µM (inactive)
same,GI50,SK-MEL-5,> 100 µM (inactive)
same,GI50,SNB-78,> 100 µM (inactive)
same,GI50,LOX IMVI,> 100 µM (inactive)
same,GI50,HOP-92,> 100 µM (inactive)
same,GI50,HL-60,> 100 µM (inactive)
same,GI50,IGROV-1,> 100 µM (inactive)
same,GI50,OVCAR-5,> 100 µM (inactive)
same,GI50,RXF 393,> 100 µM (inactive)
same,GI50,M19-MEL,> 100 µM (inactive)
same,GI50,K562,> 100 µM (inactive)
same,GI50,CAKI-1,> 100 µM (inactive)
same,GI50,SF-268,> 100 µM (inactive)
same,GI50,NCI-H226,> 100 µM (inactive)
same,GI50,MOLT-4,> 100 µM (inactive)
same,GI50,KM-20L2,> 100 µM (inactive)
same,GI50,DLD-1,> 100 µM (inactive)
same,GI50,DMS-273,> 100 µM (inactive)
same,GI50,SW-620,> 100 µM (inactive)
same,GI50,UACC-257,> 100 µM (inactive)
same,GI50,HT-29,> 100 µM (inactive)
same,GI50,U-251,> 100 µM (inactive)
same,GI50,HOP-62,> 100 µM (inactive)
same,GI50,SN12C,> 100 µM (inactive)
same,GI50,NCI-H460,> 100 µM (inactive)
